In US5126337A, “Thiazetoquinoline-3-carboxylic acid derivative and a pharmaceutical composition comprising the same” (priority 1989, dated 1992):
Values after ≈ are worked out from the molar mass of the structure shown.

What was measured:
[1] = test system: Acinetobacter calcoaceticus HNR 904; test: Antibacterial spectrum, MIC by twofold agar dilution method; format: cell-based; conditions: HNR904, 10^6 cfu/ml, clinically isolated strain, Gram -, 18 hrs at 37° C
Method: (§1) Overnight cultures in Mueller-Hinton broth were suspended by buffered saline gelatin. One loopful of the bacterial suspension (10^6 or 10^8 colony-forming units/ml) was incubated onto the plates containing test compounds. The plates were incubated for 18 hrs at 37° C. The MIC was defined by the lowest concentration of the drug that inhibited visible growth of bacteria.

[2] = test system: Acinetobacter calcoaceticus HNR 916; test: as above; format: cell-based; conditions: HNR916, 10^6 cfu/ml, clinically isolated strain, Gram -, 18 hrs at 37° C
Method: as §1

[3] = test system: Acinetobacter calcoaceticus HNR 939; test: as above; format: cell-based; conditions: HNR939, 10^6 cfu/ml, clinically isolated strain, Gram -, 18 hrs at 37° C
Method: as §1

Enterobacter cloacae 963 = test: as above; format: cell-based; conditions: 10^6 cfu/ml, standard laboratory strain, Gram -, 18 hrs at 37° C
Method: as §1

[4] = test system: Enterobacter cloacae HNR 1939; test: as above; format: cell-based; conditions: HNR1939, 10^6 cfu/ml, clinically isolated strain, Gram -, 18 hrs at 37° C
Method: as §1

[5] = test system: Enterobacter cloacae HNR 1941; test: as above; format: cell-based; conditions: HNR1941, 10^6 cfu/ml, clinically isolated strain, Gram -, 18 hrs at 37° C
Method: as §1

[6] = test system: Enterobacter cloacae HNR 1946; test: as above; format: cell-based; conditions: HNR1946, 10^6 cfu/ml, clinically isolated strain, Gram -, 18 hrs at 37° C
Method: as §1

[7] = test system: Enterococcus faecalis HPC 948; test: as above; format: cell-based; conditions: HPC948, 10^6 cfu/ml, clinically isolated strain, Gram +, 18 hrs at 37° C
Method: as §1

[8] = test system: Enterococcus faecalis HPC 975; test: as above; format: cell-based; conditions: HPC975, 10^6 cfu/ml, clinically isolated strain, Gram +, 18 hrs at 37° C
Method: as §1

[9] = test system: Enterococcus faecalis HPC 984; test: as above; format: cell-based; conditions: HPC984, 10^6 cfu/ml, clinically isolated strain, Gram +, 18 hrs at 37° C
Method: as §1

[10] = test system: Escherichia coli NIHJ JC-2; test: as above; format: cell-based; conditions: NIHJJC2, 10^6 cfu/ml, standard laboratory strain, Gram -, 18 hrs at 37° C
Method: as §1

[11] = test system: Klebsiella pneumoniae HNR 828; test: as above; format: cell-based; conditions: HNR828, 10^6 cfu/ml, clinically isolated strain, Gram -, 18 hrs at 37° C
Method: as §1

[12] = test system: Klebsiella pneumoniae HNR 858; test: as above; format: cell-based; conditions: HNR858, 10^6 cfu/ml, clinically isolated strain, Gram -, 18 hrs at 37° C
Method: as §1

[13] = test system: Klebsiella pneumoniae HNR 869; test: as above; format: cell-based; conditions: HNR869, 10^6 cfu/ml, clinically isolated strain, Gram -, 18 hrs at 37° C
Method: as §1

[14] = test system: Pseudomonas aeruginosa HNR 1489; test: as above; format: cell-based; conditions: HNR1489, 10^6 cfu/ml, clinically isolated strain, Gram -, 18 hrs at 37° C
Method: as §1

[15] = test system: Pseudomonas aeruginosa HNR 1537; test: as above; format: cell-based; conditions: HNR1537, 10^6 cfu/ml, clinically isolated strain, Gram -, 18 hrs at 37° C
Method: as §1

[16] = test system: Pseudomonas aeruginosa IFO 3445; test: as above; format: cell-based; conditions: IFO3445, 10^6 cfu/ml, standard laboratory strain, Gram -, 18 hrs at 37° C
Method: as §1

[17] = test system: Serratia marcescens HNR 1544; test: as above; format: cell-based; conditions: HNR1544, 10^6 cfu/ml, clinically isolated strain, Gram -, 18 hrs at 37° C
Method: as §1

[18] = test system: Serratia marcescens HNR 1767; test: as above; format: cell-based; conditions: HNR1767, 10^6 cfu/ml, clinically isolated strain, Gram -, 18 hrs at 37° C
Method: as §1

[19] = test system: Serratia marcescens HNR 1792; test: as above; format: cell-based; conditions: HNR1792, 10^6 cfu/ml, clinically isolated strain, Gram -, 18 hrs at 37° C
Method: as §1

[20] = test system: Serratia marcescens IAM 1184; test: as above; format: cell-based; conditions: IAM1184, 10^6 cfu/ml, standard laboratory strain, Gram -, 18 hrs at 37° C
Method: as §1

[21] = test system: Staphylococcuss aureus HPC 292; test: as above; format: cell-based; conditions: 10^6 cfu/ml; clinically isolated strain, Gram +; 18 hrs at 37° C; read-out: MIC
Method: as §1

[22] = test system: Staphylococcuss aureus HPC 527; test: as above; format: cell-based; conditions: 10^6 cfu/ml; clinically isolated strain, Gram +; 18 hrs at 37° C
Method: as §1

[23] = test system: Staphylococuss aureus FDA 209PJC-1; test: as above; format: cell-based; conditions: 10^6 cfu/ml; standard laboratory strain, Gram +; 18 hrs at 37° C
Method: as §1

Male mice of ddY strain = test: Convulsion inducing activity in combination with fenbufen; conditions: 30 min after fenbufen 100 mg/kg orally
Method: Male mice of ddY strain, 5 weeks old, were used. Fenbufen suspended in 0.5% carboxymethyl cellulose was administered orally at a dose of 100 mg/kg. After thirty minutes, test compounds suspended in 0.5% carboxymethyl cellulose were injected intraperitoneally (i.p.) at a dose of 100 mg/kg or 300 mg/kg.

[24] = test system: Pseudomonas aeruginosa HNR 1472; test: Antibacterial spectrum, MIC by twofold agar dilution method; format: cell-based; conditions: HNR1472, 10^6 cfu/ml, clinically isolated strain, Gram -, 18 hrs at 37° C
Method: as §1

[25] = test system: Klebsiella pneumoniae PCI-602; test: as above; format: cell-based; conditions: PCI602, 10^6 cfu/ml, standard laboratory strain, Gram -, 18 hrs at 37° C, read-out: MIC
Method: as §1, with “Minimum inhibitory concentrations (MIC) of test compounds were determined by the twofold agar dilution method (Chemotherapy, 29(1), 76(1981)). Overnight” for “Overnight”

[26] = test system: Staphylococcuss aureus HPC 308; test: as above; format: cell-based; conditions: 10^6 cfu/ml; clinically isolated strain, Gram +; 18 hrs at 37° C
Method: as §1

Row | SMILES | MIC [2] | MIC [3] | MIC (Enterobacter cloacae 963) | MIC [4] | MIC [5] | MIC [6] | MIC [7] | MIC [8] | MIC [9] | MIC [10] | MIC [11] | MIC [12] | MIC [13] | MIC [14] | MIC [15] | MIC [16] | MIC [17] | MIC [18] | MIC [20] | MIC [21] | other results
1 | CC1Sc2c(C(=O)O)c(=O)c3cc(F)c(N4CCC(N)C4)c(F)c3n21 (stereo not shown) [Example 33, 7-(3-amino-1-pyrrolidinyl)-6,8-difluoro-1-methyl-4-oxo-1H,4H-[1,3] thiazeto[3,2-a]quinoline-3-carboxylic acid] | 0.2 µg/mL (≈ 0.544 µM) | 1.56 µg/mL (≈ 4.25 µM) | 0.05 µg/mL (≈ 0.136 µM) | 0.2 µg/mL (≈ 0.544 µM) | 3.13 µg/mL (≈ 8.52 µM) | 0.2 µg/mL (≈ 0.544 µM) | 0.78 µg/mL (≈ 2.12 µM) | 6.25 µg/mL (≈ 17 µM) | 0.2 µg/mL (≈ 0.544 µM) | 0.025 µg/mL (≈ 0.068 µM) | 3.13 µg/mL (≈ 8.52 µM) | 0.2 µg/mL (≈ 0.544 µM) | 0.78 µg/mL (≈ 2.12 µM) | 0.2 µg/mL (≈ 0.544 µM) | 12.5 µg/mL (≈ 34 µM) | 0.1 µg/mL (≈ 0.272 µM) | 0.05 µg/mL (≈ 0.136 µM) | 12.5 µg/mL (≈ 34 µM) | 0.1 µg/mL (≈ 0.272 µM) | 6.25 µg/mL (≈ 17 µM) | MIC [1]: 25 µg/mL (≈ 68 µM); MIC [19]: 1.56 µg/mL (≈ 4.25 µM); MIC [22]: 0.05 µg/mL (≈ 0.136 µM); MIC [23]: 0.025 µg/mL (≈ 0.068 µM); Number of convulsion induced/Number of animals (Male mice of ddY strain; 100 mg/kg (i.p.)): 0/6; Number of convulsion induced/Number of animals (Male mice of ddY strain; 300 mg/kg (i.p.)): 0/6
2 | CC1Sc2c(C(=O)O)c(=O)c3cc(F)c(N4CCC(N)C4)c(Cl)c3n21 (stereo not shown) [Example 34, 7-(3-Amino-1-pyrrolidinyl)-8-chloro-6-fluoro-1-methyl-4-oxo-1H,4H-[1,3]thiazeto[3,2-a]quinoline-3-carboxylic acid] | 0.1 µg/mL (≈ 0.261 µM) | 1.56 µg/mL (≈ 4.06 µM) | 0.025 µg/mL (≈ 0.0651 µM) | 0.2 µg/mL (≈ 0.521 µM) | 1.56 µg/mL (≈ 4.06 µM) | 0.2 µg/mL (≈ 0.521 µM) | 0.78 µg/mL (≈ 2.03 µM) | 12.5 µg/mL (≈ 32.6 µM) | 0.2 µg/mL (≈ 0.521 µM) | 0.025 µg/mL (≈ 0.0651 µM) | 3.13 µg/mL (≈ 8.15 µM) | 0.2 µg/mL (≈ 0.521 µM) | 0.78 µg/mL (≈ 2.03 µM) | 0.2 µg/mL (≈ 0.521 µM) | 3.13 µg/mL (≈ 8.15 µM) | 0.1 µg/mL (≈ 0.261 µM) | 0.05 µg/mL (≈ 0.13 µM) | 6.25 µg/mL (≈ 16.3 µM) | 0.05 µg/mL (≈ 0.13 µM) | 6.25 µg/mL (≈ 16.3 µM) | MIC [24]: 3.13 µg/mL (≈ 8.15 µM); MIC [22]: 0.05 µg/mL (≈ 0.13 µM); MIC [23]: 0.05 µg/mL (≈ 0.13 µM); MIC [25]: 0.012 µg/mL (≈ 0.0313 µM); Number of convulsion induced/Number of animals (Male mice of ddY strain; 100 mg/kg (i.p.)): 0/6; Number of convulsion induced/Number of animals (Male mice of ddY strain; 300 mg/kg (i.p.)): 0/6
3 | CC1Sc2c(C(=O)O)c(=O)c3cc(F)c(N4CC[C@H](N(C)C)C4)c(Cl)c3n21 (stereo partly drawn) [Example 35, 8-Chloro-7-((S)-3-dimethylamino-1-pyrrolidinyl)-6-fluoro-1-methyl-4-oxo-1H,4H-[1,3]thiazeto[3,2-a]quinoline-3-carboxylic acid] | 0.1 µg/mL (≈ 0.243 µM) | 1.56 µg/mL (≈ 3.79 µM) | 0.1 µg/mL (≈ 0.243 µM) | 0.39 µg/mL (≈ 0.947 µM) | 6.25 µg/mL (≈ 15.2 µM) | 0.39 µg/mL (≈ 0.947 µM) | 1.56 µg/mL (≈ 3.79 µM) | 12.5 µg/mL (≈ 30.3 µM) | 0.39 µg/mL (≈ 0.947 µM) | 0.1 µg/mL (≈ 0.243 µM) | 6.25 µg/mL (≈ 15.2 µM) | 0.39 µg/mL (≈ 0.947 µM) | 1.56 µg/mL (≈ 3.79 µM) | 0.78 µg/mL (≈ 1.89 µM) | 25 µg/mL (≈ 60.7 µM) | 0.78 µg/mL (≈ 1.89 µM) | 0.1 µg/mL (≈ 0.243 µM) | 12.5 µg/mL (≈ 30.3 µM) | 0.2 µg/mL (≈ 0.486 µM) | 12.5 µg/mL (≈ 30.3 µM) | MIC [1]: 3.13 µg/mL (≈ 7.6 µM); MIC [24]: 12.5 µg/mL (≈ 30.3 µM); MIC [19]: 3.13 µg/mL (≈ 7.6 µM); MIC [26]: 0.78 µg/mL (≈ 1.89 µM); MIC [22]: 0.1 µg/mL (≈ 0.243 µM); MIC [23]: 0.1 µg/mL (≈ 0.243 µM); MIC [25]: 0.05 µg/mL (≈ 0.121 µM)
